In US20150087662A1, “CYCLOBUTANE AND METHYLCYCLOBUTANE DERIVATIVES AS JANUS KINASE INHIBITORS” (Incyte Corporation, priority 2010, published 2015):
Structures can show the parent of a compound that is named as a salt.

Tests used:
[1] = biological target: T1, human JAK1 (a.a. 837-1142) (Homo sapiens, UniProt P23458); experiment: In vitro JAK kinase assay (HTRF), JAK1; type: biochemical; details: catalytic domain, ATP 90 μM, 500 nM peptide, room temperature 1 hr
T1 construct: human JAK1 (a.a. 837-1142); His tag (N); made in house; host or cells: insect cells (baculovirus)
T1 sequence (P23458 849-1154): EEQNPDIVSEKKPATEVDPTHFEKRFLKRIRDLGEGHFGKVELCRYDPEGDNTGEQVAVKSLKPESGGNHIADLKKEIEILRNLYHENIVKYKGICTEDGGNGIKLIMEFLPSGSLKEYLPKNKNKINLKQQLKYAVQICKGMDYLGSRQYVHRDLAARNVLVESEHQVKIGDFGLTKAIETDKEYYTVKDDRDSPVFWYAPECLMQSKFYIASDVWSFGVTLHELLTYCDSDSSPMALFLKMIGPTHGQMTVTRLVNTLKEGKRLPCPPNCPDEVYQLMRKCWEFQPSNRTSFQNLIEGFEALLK
Procedure: (§1) Compounds herein were tested for inhibitory activity of JAK targets according to the following in vitro assay described in Park et al., Analytical Biochemistry 1999, 269, 94-104. The catalytic domains of human JAK1 (a.a. 837-1142), JAK2 (a.a. 828-1132) and JAK3 (a.a. 781-1124) with an N-terminal His tag were expressed using baculovirus in insect cells and purified. The catalytic activity of JAK1, JAK2 or JAK3 was assayed by measuring the phosphorylation of a biotinylated peptide. The phosphorylated peptide was detected by homogenous time resolved fluorescence (HTRF). IC50s of compounds were measured for each kinase in the reactions that contain the enzyme, ATP and 500 nM peptide in 50 mM Tris (pH 7.8) buffer with 100 mM NaCl, 5 mM DTT, and 0.1 mg/mL (0.01%) BSA. The ATP concentration in the reactions was 90 μM for JAK1, 30 μM for JAK2 and 3 μM for JAK3. Reactions were carried out at room temperature for 1 hr and then stopped with 20 μL 45 mM EDTA, 300 nM SA-APC, 6 nM Eu-Py20 in assay buffer (Perkin Elmer, Boston, Mass.). Binding to the Europium labeled antibody took place for 40 minutes and HTRF signal was measured on a Fusion plate reader (Perkin Elmer, Boston, Mass.).

JAK2 (a.a. 828-1132) = biological target: T2, JAK2 (a.a. 828-1132) (Homo sapiens, UniProt O60674); experiment: In vitro JAK kinase assay (HTRF), JAK2; type: biochemical; details: catalytic domain, ATP 30 μM, 500 nM peptide, room temperature 1 hr
T2 construct: JAK2 (a.a. 828-1132); His tag (N); made in house; host or cells: insect cells (baculovirus)
T2 sequence (O60674 828-1132): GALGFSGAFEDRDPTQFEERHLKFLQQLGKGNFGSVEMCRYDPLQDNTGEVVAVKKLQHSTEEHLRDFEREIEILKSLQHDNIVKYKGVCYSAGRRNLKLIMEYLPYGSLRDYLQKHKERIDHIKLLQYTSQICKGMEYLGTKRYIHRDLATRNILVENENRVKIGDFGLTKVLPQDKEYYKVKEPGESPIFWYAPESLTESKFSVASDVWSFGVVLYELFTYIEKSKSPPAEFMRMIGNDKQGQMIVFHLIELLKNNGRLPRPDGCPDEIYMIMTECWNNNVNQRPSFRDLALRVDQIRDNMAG
Procedure: as §1

Row | Compound | IC50 [1] [nM] | IC50 (JAK2 (a.a. 828-1132)) [nM]
1 | N#CCC(C1CCC1)n1cc(-c2ncnc3[nH]ccc23)cn1 (single isomer, unassigned) [Example 1, (R or S)-3-Cyclobutyl-3-[4-(7H-pyrrolo[2,3-d]pyrimidin-4-yl)-1H-pyrazol-1-yl]propanenitrile] | < 2 | < 1
2 | C[C@H]1C[C@H](C(CC#N)n2cc(-c3ncnc4[nH]ccc34)cn2)C1 (single isomer, unassigned) [Example 2, (3R or 3S)-3-(4-(7H-Pyrrolo[2,3-d]pyrimidin-4-yl)-1H-pyrazol-1-yl)-3-((trans)-3-methylcyclobutyl)propanenitrile phosphoric acid salt] | < 2 | < 1
3 | C[C@H]1C[C@@H](C(CC#N)n2cc(-c3ncnc4[nH]ccc34)cn2)C1 (single isomer, unassigned) [Example 3, (3R or 3S)-3-(4-(7H-Pyrrolo[2,3-d]pyrimidin-4-yl)-1H-pyrazol-1-yl)-3-((cis)-3-methylcyclobutyl)-propanenitrile phosphoric acid salt] | < 2 | < 1
